Source: US20260317324A1, “BIFUNCTIONAL COMPOUNDS FOR DEGRADING BRAF VIA UBIQUITIN PROTEOSOME PATHWAY” (Nurix Therapeutics, Inc., priority 2023, published 2026)

Assays:
Format in all cases: cell-based
BRAF G469A = target: T1, BRAF G469A (Homo sapiens, UniProt P15056, G469A); test: BRAF HiBiT degradation assay, C-terminal HiBiT-tagged BRAF G469A overexpressed in HCT-116 BRAF−/− cells (clone 34), Nano-Glo HiBiT Lytic assay; settings: BRAF G469A (Class 2), HCT-116 BRAF−/− cells; for DC50: DC50 at 50% degradation; for Dmax: observed Dmax relative to DMSO control
T1 construct: Horizon Discovery (HCT-116 BRAF−/− cells); host or cells: HCT-116 BRAF−/− cells, clone 34, lentiviral transduction
How it was run: (§1)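 Cells 3,000/well, 24 h at 37 °C; cpds 1 μM–0.01 nM, 11-pt half-log, duplicate, 0.2% DMSO. Readout: HiBiT lytic luminescence, 10 min at RT. Normalized to DMSO-treated tagged cells, with DMSO-treated wild-type HCT-116 as background. DC50 = fitted concentration at Y=50; Obs. Dmax = % degraded at maximal effect.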

BRAF D594G = target: T2, BRAF D594G (Homo sapiens, UniProt P15056, D594G); test: BRAF HiBiT degradation assay, C-terminal HiBiT-tagged BRAF D594G overexpressed in HCT-116 BRAF−/− cells (clone 63), Nano-Glo HiBiT Lytic assay; settings: BRAF D594G (Class 3), HCT-116 BRAF−/− cells; for DC50: DC50 at 50% degradation; for Dmax: observed Dmax relative to DMSO control
T2 construct: Horizon Discovery (HCT-116 BRAF−/− cells); host or cells: HCT-116 BRAF−/− cells, clone 63, lentiviral transduction
How it was run: as §1

BRAF G466V = target: T3, BRAF G466V (Homo sapiens, UniProt P15056, G466V); test: BRAF HiBiT degradation assay, C-terminal HiBiT-tagged BRAF G466V overexpressed in HCT-116 BRAF−/− cells (clone 8), Nano-Glo HiBiT Lytic assay; settings: BRAF G466V (Class 3), HCT-116 BRAF−/− cells; for DC50: DC50 at 50% degradation; for Dmax: observed Dmax relative to DMSO control
T3 construct: Horizon Discovery (HCT-116 BRAF−/− cells); host or cells: HCT-116 BRAF−/− cells, clone 8, lentiviral transduction
How it was run: as §1

BRAF V600E = target: T4, BRAF V600E (Homo sapiens, UniProt P15056, V600E); test: BRAF HiBiT degradation assay, C-terminal HiBiT-tagged BRAF V600E A375 cells (clone 1F10), Nano-Glo HiBiT Lytic assay; settings: A375 (BRAF V600E, Class 1); for DC50: DC50 at 50% degradation; for Dmax: A-375, observed Dmax, % protein degraded relative to DMSO control
T4 construct: endogenous C-terminal HiBiT fusion tag on BRAF V600E allele; endogenous in cells; host or cells: A375 clone 1F10 (CRISPR-Cas9 knock-in of the HiBiT tag; parental A375 from ATCC)
How it was run: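 Luminescence read-out: Nano-Glo HiBiT lytic reagent with LgBiT, 10 min at room temperature. Signal normalised to DMSO-treated tagged cells, with wildtype A375 as background. Cells are endogenously tagged BRAF V600E A375 clone 1F10. Compounds were tested from 1 μM to 0.01 nM; Dmax is observed % degraded at maximal effect.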

T2 sequence (P15056 whole entry D594G): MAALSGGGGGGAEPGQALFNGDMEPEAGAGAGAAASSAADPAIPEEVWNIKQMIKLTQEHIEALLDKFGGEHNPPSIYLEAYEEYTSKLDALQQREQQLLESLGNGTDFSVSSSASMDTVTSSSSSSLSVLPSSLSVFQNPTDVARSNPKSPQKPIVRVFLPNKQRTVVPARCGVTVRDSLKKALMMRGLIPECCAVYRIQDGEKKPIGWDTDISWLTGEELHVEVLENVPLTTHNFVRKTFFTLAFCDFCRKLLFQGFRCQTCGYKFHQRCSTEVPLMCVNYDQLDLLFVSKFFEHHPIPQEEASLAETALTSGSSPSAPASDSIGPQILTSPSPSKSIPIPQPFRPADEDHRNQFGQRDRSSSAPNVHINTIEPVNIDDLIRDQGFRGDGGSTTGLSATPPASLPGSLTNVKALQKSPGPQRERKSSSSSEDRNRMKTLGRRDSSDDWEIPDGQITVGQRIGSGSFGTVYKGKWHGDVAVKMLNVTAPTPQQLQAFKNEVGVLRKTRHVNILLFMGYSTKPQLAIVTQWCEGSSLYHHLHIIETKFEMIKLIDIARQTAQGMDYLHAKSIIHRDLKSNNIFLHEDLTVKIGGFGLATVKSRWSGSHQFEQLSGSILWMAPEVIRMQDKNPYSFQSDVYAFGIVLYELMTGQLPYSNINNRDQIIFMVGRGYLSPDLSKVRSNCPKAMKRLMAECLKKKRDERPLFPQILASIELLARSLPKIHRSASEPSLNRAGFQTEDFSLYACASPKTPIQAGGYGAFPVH
T1 sequence (P15056 whole entry G469A): as the sequence (P15056 whole entry D594G) above, with G469A, G594D counted along it
T4 sequence (P15056 whole entry V600E, the tested form may be a part): as the sequence (P15056 whole entry D594G) above, with G594D, V600E counted along it
T3 sequence (P15056 whole entry G466V): as the sequence (P15056 whole entry D594G) above, with G466V, G594D counted along it

O=C1CC[C@H](c2ccc(N3CCC(CN4CCN(c5ccc(-n6cc(-c7cc(Cl)cc(NS(=O)(=O)C8CCCC8)c7F)c(-c7ccncc7)n6)cc5)CC4)CC3)nc2)C(=O)N1 [Compound 372, N-{5-chloro-3-[1-(4-{4-[(1-{5-[(3R)-2,6-dioxopiperidin-3-yl]pyridin-2-yl}piperidin-4-yl)methyl]piperazin-1-yl}phenyl)-3-(pyridin-4-yl)-1H-pyrazol-4-yl]-2-fluorophenyl}cyclopentanesulfonamide]
DC50 (BRAF G469A): 10 to 50 nM | Dmax (BRAF G469A): > 70% | DC50 (BRAF D594G): < 10 nM | Dmax (BRAF D594G): > 70% | DC50 (BRAF G466V): 10 to 50 nM | Dmax (BRAF G466V): > 70% | DC50 (BRAF V600E): < 10 nM | Dmax (BRAF V600E): > 70%

O=C1CC[C@H](c2ccc(N3CCC(CN4CCN(c5ccc(-n6cc(-c7cc(Cl)cc(NS(=O)(=O)C8CCCC8)c7F)c(-c7ccncc7)n6)cc5)CC4)CC3)cc2)C(=O)N1 [Compound 374, N-{5-chloro-3-[1-(4-{4-[(1-{4-[(3R)-2,6-dioxopiperidin-3-yl]phenyl}piperidin-4-yl)methyl]piperazin-1-yl}phenyl)-3-(pyridin-4-yl)-1H-pyrazol-4-yl]-2-fluorophenyl}cyclopentanesulfonamide]
DC50 (BRAF G469A): 10 to 50 nM | Dmax (BRAF G469A): 30 to 70% | DC50 (BRAF D594G): 10 to 50 nM | Dmax (BRAF D594G): 30 to 70% | DC50 (BRAF G466V): 10 to 50 nM | Dmax (BRAF G466V): > 70% | DC50 (BRAF V600E): < 10 nM | Dmax (BRAF V600E): > 70%

CCN(C)S(=O)(=O)Nc1cc(F)cc(-c2cn(-c3ccc(N4CCN(CC5CCN(c6ccc([C@H]7CCC(=O)NC7=O)cn6)CC5)CC4)cc3)nc2-c2ccncc2)c1F [Compound 375, (3R)-3-(6-{4-[(4-{4-[4-(3-{[ethyl(methyl)sulfamoyl]amino}-2,5-difluorophenyl)-3-(pyridin-4-yl)-1H-pyrazol-1-yl]phenyl}piperazin-1-yl)methyl]piperidin-1-yl}pyridin-3-yl)piperidine-2,6-dione]
DC50 (BRAF G469A): 10 to 50 nM | Dmax (BRAF G469A): > 70% | DC50 (BRAF D594G): < 10 nM | Dmax (BRAF D594G): > 70% | DC50 (BRAF G466V): < 10 nM | Dmax (BRAF G466V): > 70% | DC50 (BRAF V600E): < 10 nM | Dmax (BRAF V600E): > 70%

CCN(C)S(=O)(=O)Nc1cc(F)cc(-c2cn(-c3ccc(N4CCN(CC5CCN(c6ccc([C@H]7CCC(=O)NC7=O)cc6)CC5)CC4)cc3)nc2-c2ccncc2)c1F [Compound 377, (3R)-3-(4-{4-[(4-{4-[4-(3-{[ethyl(methyl)sulfamoyl]amino}-2,5-difluorophenyl)-3-(pyridin-4-yl)-1H-pyrazol-1-yl]phenyl}piperazin-1-yl)methyl]piperidin-1-yl}phenyl)piperidine-2,6-dione]
DC50 (BRAF G469A): < 10 nM | Dmax (BRAF G469A): 30 to 70% | DC50 (BRAF D594G): 10 to 50 nM | Dmax (BRAF D594G): 30 to 70% | DC50 (BRAF G466V): 10 to 50 nM | Dmax (BRAF G466V): > 70% | DC50 (BRAF V600E): 10 to 50 nM | Dmax (BRAF V600E): > 70%

CCCS(=O)(=O)Nc1cccc(-c2cn(-c3ccc(N4CCN(CC5CCN(c6ccc([C@H]7CCC(=O)NC7=O)cc6)CC5)[C@H](C)C4)cc3)nc2-c2ccncc2)c1F [Compound 378, N-[3-(1-{4-[(3R)-4-[(1-{4-[(3R)-2,6-dioxopiperidin-3-yl]phenyl}piperidin-4-yl)methyl]-3-methylpiperazin-1-yl]phenyl}-3-(pyridin-4-yl)-1H-pyrazol-4-yl)-2-fluorophenyl]propane-1-sulfonamide]
DC50 (BRAF G469A): > 500 nM | Dmax (BRAF G469A): 30 to 70% | DC50 (BRAF D594G): > 500 nM | Dmax (BRAF D594G): 30 to 70% | DC50 (BRAF G466V): 10 to 50 nM | Dmax (BRAF G466V): 30 to 70% | DC50 (BRAF V600E): 10 to 50 nM | Dmax (BRAF V600E): > 70%

CCN(C)S(=O)(=O)Nc1cccc(-c2cn(-c3ccc(N4CCN(CC5CCN(c6ccc([C@H]7CCC(=O)NC7=O)cn6)CC5)CC4)cc3F)nc2-c2ccncc2)c1F [Compound 379, (3R)-3-(6-{4-[(4-{4-[4-(3-{[ethyl(methyl)sulfamoyl]amino}-2-fluorophenyl)-3-(pyridin-4-yl)-1H-pyrazol-1-yl]-3-fluorophenyl}piperazin-1-yl)methyl]piperidin-1-yl}pyridin-3-yl)piperidine-2,6-dione]
DC50 (BRAF G469A): > 500 nM | Dmax (BRAF G469A): 30 to 70% | DC50 (BRAF D594G): 50 to 500 nM | Dmax (BRAF D594G): 30 to 70% | DC50 (BRAF G466V): 50 to 500 nM | Dmax (BRAF G466V): 30 to 70% | DC50 (BRAF V600E): 50 to 500 nM | Dmax (BRAF V600E): > 70%

CCN(C)S(=O)(=O)Nc1cccc(-c2cn(-c3ccc(N4CCN(CC5CCN(c6ccc([C@@H]7CCC(=O)NC7=O)cn6)CC5)CC4)c(F)c3)nc2-c2ccncc2)c1F [Compound 380, (3S)-3-(6-{4-[(4-{4-[4-(3-{[ethyl(methyl)sulfamoyl]amino}-2-fluorophenyl)-3-(pyridin-4-yl)-1H-pyrazol-1-yl]-2-fluorophenyl}piperazin-1-yl)methyl]piperidin-1-yl}pyridin-3-yl)piperidine-2,6-dione]
DC50 (BRAF G469A): > 500 nM | Dmax (BRAF G469A): 30 to 70% | DC50 (BRAF D594G): 10 to 50 nM | Dmax (BRAF D594G): 30 to 70% | DC50 (BRAF G466V): 50 to 500 nM | Dmax (BRAF G466V): 30 to 70% | DC50 (BRAF V600E): 50 to 500 nM | Dmax (BRAF V600E): > 70%

O=C1CC[C@@H](c2ccc(N3CCC(CN4CCN(c5ccc(-n6cc(-c7cc(Cl)cc(NS(=O)(=O)N8CCCC8)c7F)c(-c7ccncc7)n6)nc5)CC4)CC3)nc2)C(=O)N1 [Compound 383, N-{5-chloro-3-[1-(5-{4-[(1-{5-[(3S)-2,6-dioxopiperidin-3-yl]pyridin-2-yl}piperidin-4-yl)methyl]piperazin-1-yl}pyridin-2-yl)-3-(pyridin-4-yl)-1H-pyrazol-4-yl]-2-fluorophenyl}pyrrolidine-1-sulfonamide]
DC50 (BRAF G469A): 10 to 50 nM | Dmax (BRAF G469A): > 70% | DC50 (BRAF D594G): < 10 nM | Dmax (BRAF D594G): > 70% | DC50 (BRAF G466V): < 10 nM | Dmax (BRAF G466V): > 70% | DC50 (BRAF V600E): < 10 nM | Dmax (BRAF V600E): > 70%

O=C1CC[C@@H](c2ccc(N3CCC(CN4CCN(c5ccc(-n6cc(-c7cc(Cl)cc(NS(=O)(=O)N8CCCC8)c7F)c(-c7ccncc7)n6)cc5)CC4)CC3)cc2F)C(=O)N1 [Compound 384, N-{5-chloro-3-[1-(4-{4-[(1-{4-[(3S)-2,6-dioxopiperidin-3-yl]-3-fluorophenyl}piperidin-4-yl)methyl]piperazin-1-yl}phenyl)-3-(pyridin-4-yl)-1H-pyrazol-4-yl]-2-fluorophenyl}pyrrolidine-1-sulfonamide]
DC50 (BRAF G469A): > 500 nM | Dmax (BRAF G469A): 30 to 70% | DC50 (BRAF D594G): > 500 nM | Dmax (BRAF D594G): 30 to 70% | DC50 (BRAF G466V): 10 to 50 nM | Dmax (BRAF G466V): 30 to 70% | DC50 (BRAF V600E): 10 to 50 nM | Dmax (BRAF V600E): > 70%

O=C1CCN(c2ccc(N3CCC(CN4CCN(c5ccc(-n6cc(-c7cc(Cl)cc(NS(=O)(=O)C8CCCC8)c7F)c(-c7ccncc7)n6)cc5)CC4)CC3)nc2)C(=O)N1 [Compound 388, N-[5-chloro-3-(1-{4-[4-({1-[5-(2,4-dioxo-1,3-diazinan-1-yl)pyridin-2-yl]piperidin-4-yl}methyl)piperazin-1-yl]phenyl}-3-(pyridin-4-yl)-1H-pyrazol-4-yl)-2-fluorophenyl]cyclopentanesulfonamide]
DC50 (BRAF G469A): 10 to 50 nM | Dmax (BRAF G469A): 30 to 70% | DC50 (BRAF D594G): < 10 nM | Dmax (BRAF D594G): 30 to 70% | DC50 (BRAF G466V): < 10 nM | Dmax (BRAF G466V): > 70% | DC50 (BRAF V600E): < 10 nM | Dmax (BRAF V600E): > 70%
